Experiments:
A2780 xenografts = assay: A2780 ovarian cancer xenograft; format: in vivo, mice; details: HDAC6 inhibitor 50 mg/kg IP plus paclitaxel 10 mg/kg
[1] = test system: TOV-21G ovarian cancer cells; assay: Multipolar mitotic spindle scoring by α-tubulin staining; format: cell-based; details: 24 hours; for frequency of multipolar spindle formation, combination with paclitaxel: HDAC6 inhibitor 2 μM plus paclitaxel 2 nM; for frequency of multipolar mitotic spindle formation, single agent: paclitaxel 2 nM, ACY-241 2 μM, ACY-1215 2 μM, control 3.1%
Description: (§1) Cells grown on glass coverslips were fixed in 4% paraformaldehyde for 15 min, followed by permeabilization with 0.5% Triton X-100 in PBS for 5 min. The cells were then incubated with α-tubulin (DM1A) mouse monoclonal antibody (Cell Signaling Technology, Danvers, MA), γ-tubulin (GTU-88) mouse monoclonal antibody (Sigma-Aldrich, St. Louis, MO) or NuMA (GT3611) mouse monoclonal antibody (Thermo Scientific, Rockford, IL) followed by Alexa Fluor 488 or 546 conjugated secondary antibodies (Invitrogen, Carlsbad, CA). Images were obtained with a Zeiss AX10 microscope (Carl Zeiss Micro-Imaging, Inc., Jena, Germany) equipped with a 20 X, 40X, or 63 X objective and standard filter set.
for α-tubulin (red) and DNA (blue) identified mitotic cells with multipolar spindles. (B) The frequency of multipolar spindle formation in
M phase cells was scored in at least 50 cells per treatment condition.
(§2) (1 picture or pasted object on this page, not shown here)

MiaPaCa-2 xenografts = assay: MiaPaCa-2 pancreatic cancer xenograft; format: in vivo, mice; details: MiaPaCa-2 xenograft, HDAC6 inhibitor 50 mg/kg IP plus paclitaxel 10 mg/kg
[2] = Tolerability and body weight in xenograft-bearing mice; details: for body weight change: MiaPaCa-2 model, combination treatment with paclitaxel; for tolerability in mice: dosed as a single agent and in combination with paclitaxel
TOV-21G xenografts = assay: TOV-21G ovarian cancer xenograft; format: in vivo, mice; details: TOV-21G xenograft, HDAC6 inhibitor 50 mg/kg IP plus paclitaxel 10 mg/kg
[3] = test system: MDA-MB-231 breast cancer cells; assay: IncuCyte Caspase 3/7 apoptosis assay; format: cell-based; details: for apoptosis (Caspase 3/7): MDA-MB-231, single agent
[4] = test system: A2780, TOV-21G and MDA-MB-231 cells; assay: MTS cell viability assay; format: cell-based; details: 72 h, range over A2780, TOV-21G and MDA-MB-231 cells, 3 days, read-out: single agent viability IC50
Description: CellTiter 96® AQueous One Solution; Promega; Madison, WI, USA) dye absorbance. Cells (A2780, TOV-21G, MDA-MB-231) from 72 hour cultures were pulsed with 5 μL of CellTiter 96® AQueous One Solution in each well. The 384-well plates were incubated at 37°C for 5 hours, and absorbance was read in triplicate at a wavelength of 490 nm (with background correction using readings at 650 nm) on a spectrophotometer (Molecular Devices Corp.; Sunnyvale, CA, USA). […] The IC50 for each agent in each cell line is indicated in the legend of each graph. Real-time kinetic trace graphs of (C) cell proliferation and (D) induction of apoptosis were generated in the MDA- MB-231 breast cancer cell line. […] The mean and SEM of three replicate samples are shown. […]

TOV-21G cells [5] = assay: Multipolar mitotic spindle scoring by NuMA and α-tubulin co-staining; format: cell-based; details: 24 hours
Excerpt: (§3) (B) The frequency of mitotic cells with multipolar spindles was scored in at least 50 cells from each treatment condition. Shown is the mean ± SD of three independent experiments. […] Microtubules and DNA were visualized by staining with anti-α-tubulin antibody (green) and DAPI (blue), respectively. The frequency of interphase cells with visually abnormal nuclei, including satellite nuclei and multinucleation, was scored in at least 100 cells per treatment condition. Shown is the mean ± SD of three independent experiments.
as §1
(A) Immunostaining for α-tubulin (green), NuMA
(red), and DNA (blue). (B) The frequency of mitotic cells with multipolar spindles was scored in at least 100 cells from each treatment
as §2

[6] = test system: phospho-histone H3 (pH3) positive cells; assay: Phospho-histone H3 / DNA content flow cytometry for M phase cells; format: cell-based; details: for pH3 positive cells (M phase): low dose 6 nM
Description: arrest. (A) Dual parameter phospho-histone H3 (y axis, M phase cells) and FxCycle Far Red (x axis, DNA content) staining indicate the […]
High dose treatment of paclitaxel (100 nM) served as a positive control for M phase arrest. (B) Phase contrast micrographs were taken at the indicated time points after treatment of the samples in panel (A).
as §2

[7] = test system: MDA-MB-231 breast cancer cells; assay: IncuCyte live-cell proliferation assay; format: cell-based; details: for proliferation (absolute cell number): MDA-MB-231, single agent
TOV-21G cells [8] = assay: Live cell time-lapse imaging of cell division; format: cell-based; details: ACY-241 2 μM plus paclitaxel 5 nM, up to 48 hours
Description: Time-lapse imaging was obtained on a Zeiss AX10 live-cell microscope coupled with a CO2 and temperature-maintenance system, and a time-lapse recording system supporting multi-location time series acquisition (SlideBook6 x64, Intelligent Imaging Innovations, Inc., Ringsby, CT). After staining with 10 nM Hoechst33342, TOV-21G cells were incubated in 10% CO2 at 37°C and time-lapse images were acquired at 2 min intervals up to 48 hours with a CoolSNAP HQ2 CCD camera (Photometrics, Tucson, AZ). […]
monitored by live cell time-lapse microscopy. (A) The number of observed mitotic cells, unresolved mitoses, and frequency of bipolar and multipolar division from resolved mitosis were assessed. (B) Fluorescent and matched phase-contrast time-lapse images of representative mitoses in TOV-21G cells treated with the drug combination. Numbers show elapsed time after drug treatment (hour:minute:second), the color of circles differentiates individual cells being monitored, and dashed circles indicate observation of cell death. Panels labeled with lower case letters (a-e) identify timepoints with matched phase contrast images below (a’-e’).
as §2

[9] = test system: α-tubulin acetylation in A2780 ovarian cancer cells; assay: Immunoblotting of acetylated α-tubulin in A2780 cells; format: cell-based
Description: (§4) Lysates were sonicated 2 to 3 times for 30 sec in medium (Diagenode, Bioruptor 300).
(§5) For western blot analysis, equal amounts of protein were loaded and size separated on Bolt™ 4 to 12% Bis-Tris Plus Gels. Proteins were subsequently transferred onto polyvinylidene difluoride (PVDF) membrane using an iBlot® 2 Dry Blotting System (Invitrogen). Immunoblotting was carried out according to standard protocols with antibodies against histone H3 acetyl-lysine 56 (abcam), histone-H4, pantropic (Millipore), acetyl-α-tubulin (Sigma); and β-Actin (Sigma). Antigen-antibody complexes were detected using secondary antibodies conjugated with horseradish […] (HRP) and visualized using enhanced chemiluminescence (GE Healthcare; Piscataway, NJ).

TOV-21G cells [10] = assay: Scoring of interphase cells with abnormal nuclei; format: cell-based; details: 48 hours
Excerpt: as §3, §1

[11] = test system: α-tubulin acetylation in A2780 and MDA-MB-231 cells; assay: Immunoblotting of acetylated α-tubulin after combination treatment; format: cell-based; details: 48 hours
Description: A2780 and MDA-MB-231 cells were treated for 48 hours with the indicated concentrations of each drug and whole cell protein lysates were subjected to immunoblotting using antibodies for acetylated-α-tubulin and β-actin.
as §4, §5
For WES analysis, lysates were separated by an automated capillary-based electrophoresis system (WES, ProteinSimple, San Jose, CA). All procedures were performed according to the manufacturer's recommendations using the supplied reagents. […] The resulting data were analyzed using Compass software (ProteinSimple).

[12] = test system: histone H3 acetylation in A2780 ovarian cancer cells; assay: Immunoblotting of acetylated histone H3 (H3K56) in A2780 cells; format: cell-based; details: 24 hour treatment
Description: as §4, §5

[13] = test system: A2780, TOV-21G and MiaPaCa-2 cells; assay: EdU / FxCycle flow cytometry cell cycle assessment in multiple cell lines (Figure 4B, 4C); format: cell-based
[14] = MDA-MB-231, relative to either single agent

## O=C(CCCCCCNC(=O)c1cnc(N(c2ccccc2)c2ccccc2)nc1)NO [ricolinostat]
A2780 xenografts
  suppression of tumor growth, combination with paclitaxel: significantly greater suppression of tumor growth relative to either single agent
[1]
  frequency of multipolar spindle formation, combination with paclitaxel: 41.3%
  frequency of multipolar mitotic spindle formation, single agent: 12.6%
MiaPaCa-2 xenografts
  suppression of tumor growth, combination with paclitaxel: significantly greater suppression of tumor growth relative to either single agent
[2]
  body weight change: did not result in body weight loss
  tolerability in mice: well tolerated
TOV-21G xenografts
  suppression of tumor growth, combination with paclitaxel: significantly greater suppression of tumor growth relative to either single agent

## CC(=O)O[C@H]1C(=O)[C@@]2(C)[C@H]([C@H](OC(=O)c3ccccc3)[C@]3(O)C[C@H](OC(=O)[C@H](O)[C@@H](NC(=O)c4ccccc4)c4ccccc4)C(C)=C1C3(C)C)[C@]1(OC(C)=O)CO[C@@H]1C[C@@H]2O [paclitaxel, reference compound]
[3]; up to 2 nM
  apoptosis (Caspase 3/7): did induce apoptosis after longer duration of exposure
[4]
  IC50: 2.3 to 3.2 nM
[1]
  frequency of multipolar mitotic spindle formation, single agent: 15.2%
TOV-21G cells [5]; NuMA/α-tubulin co-staining (Figure 6B)
  frequency of multipolar spindle formation, single agent: 30.4%
[6]; high concentration 100 nM, 8 to 24 hours
  cell cycle arrest at M phase: induced cell cycle arrest at mitosis (M) phase
[6]; 8 hours, DMSO […]
  pH3 positive cells (M phase): 14%
[6]; 24 hours
  pH3 positive cells (M phase): 4.1%
[7]; up to 2 nM
  proliferation (absolute cell number): modestly reduced cell proliferation

## C/C(=C\c1csc(C)n1)[C@@H]1C[C@@H]2O[C@]2(C)CCC[C@H](C)[C@H](O)[C@@H](C)C(=O)C(C)(C)[C@@H](O)CC(=O)O1 [epothilone, epothilone B, reference compound]
TOV-21G cells [5]; 0.5 nM, control 0.9%
  frequency of multipolar mitotic spindle formation, single agent: 29.9%

## O=C(CCCCCCNC(=O)c1cnc(N(c2ccccc2)c2ccccc2Cl)nc1)NO [ACY-241]
[3]; [14]
  apoptosis, combination with paclitaxel: enhanced apoptosis
[3]; 10 μM
  apoptosis (Caspase 3/7): significant induction of apoptosis
[3]; doses up to 3 μM, 96 hours
  apoptosis (Caspase 3/7): without inducing apoptosis
[4]
  IC50: 4600 to 6100 nM
TOV-21G cells [8]
  frequency of multipolar cell division, combination with paclitaxel: increased the frequency of multipolar cell division compared to each single agent
[9]; 24 hour treatment, 300 nM
  hyperacetylation of α-tubulin: increased hyperacetylation of α-tubulin
[9]; range of concentrations, 24 hours
  α-tubulin hyperacetylation, dose dependence: dose-dependent increase in α-tubulin hyperacetylation
[1]
  frequency of multipolar spindle formation, combination with paclitaxel: 38.6%
  frequency of multipolar mitotic spindle formation, single agent: 10.7%
TOV-21G cells [10]
  frequency of cells with visually abnormal nuclei, combination with paclitaxel: significantly increased the frequency of cells with visually abnormal nuclei
[11]
  α-tubulin hyperacetylation, combination with paclitaxel: synergistic increase in α-tubulin hyperacetylation
MiaPaCa-2 xenografts
  suppression of tumor growth, combination with paclitaxel: similarly significant efficacy
[12]
  doses at which hyperacetylation of histone H3 was observed: above 1 μM
TOV-21G cells [5]; NuMA/α-tubulin co-staining, p = 0.0047 vs paclitaxel
  frequency of multipolar spindle formation, combination with paclitaxel: 51.5%
TOV-21G cells [5]; epothilone 0.5 nM plus ACY-241
  frequency of multipolar spindle formation, combination with epothilone: 51.3%
[2]
  body weight change: did not result in body weight loss
  tolerability in mice: well tolerated
[13]; A2780 and TOV-21G (3 days), MiaPaCa-2 (5 days)
  percentage of cells in S phase, combination with paclitaxel: significantly reduced the percentage of cells in S phase
[13]; relative to control or single agent treatment
  induction of cell death (SubG1), combination with paclitaxel: significantly increased induction of cell death
[6]; 2 μM, single agent or in combination with paclitaxel
  M phase arrest: did not significantly increase M phase arrest
[7]; [14]
  proliferation, combination with paclitaxel: significantly reduced proliferation
[7]; 10 μM
  proliferation (absolute cell number): completely suppressed proliferation
[7]; doses up to 3 μM, 96 hours
  proliferation (absolute cell number): modestly reduced proliferation

— paper PMC5356834 (Oncotarget, 2016)
